Values after ≈ are worked out from the molar mass of the structure shown.
Experiments:
[1] = system: Staphylococcus aureus; test: In vitro antibacterial activity against Staphylococcus aureus MR; type: functional
[2] = system: Clostridium perfringens; test: In vitro antibacterial activity against Clostridium perfringens; type: functional
[3] = system: Enterococcus faecalis; test: In vitro antibacterial activity against Enterococcus faecalis; type: functional
[4] = system: Haemophilus influenzae; test: In vitro antibacterial activity against Haemophilus influenzae; type: functional
[5] = system: Aeromonas sp.; test: In vitro antibacterial activity against Aeromonas species.; type: functional
[6] = system: Bacteroides fragilis; test: In vitro antibacterial activity against Bacteroides fragilis; type: functional
[7] = system: Streptococcus pyogenes; test: In vitro antibacterial activity against Streptococcus pyogenes A; type: functional
[8] = system: Yersinia sp.; test: In vitro antibacterial activity against Yersinia species; type: functional, yersinia spp; conditions: Yersinia sp. (in: enterobacteria)
[9] = system: Moraxella catarrhalis; test: In vitro antibacterial activity against Branhamella catarrhalis; type: functional
[10] = system: Klebsiella pneumoniae; test: In vitro antibacterial activity against Klebsiella pneumoniae; type: functional
[11] = system: Streptococcus agalactiae; test: In vitro antibacterial activity against Streptococcus agalactiae B; type: functional
[12] = system: Staphylococcus aureus; test: In vitro antibacterial activity against Staphylococcus aureus MS; type: functional
[13] = system: Enterococcus faecium; test: In vitro antibacterial activity against Enterococcus faecium; type: functional
[14] = system: Streptococcus pneumoniae; test: In vitro antibacterial activity against Streptococcus pneumoniae; type: functional
[15] = system: Staphylococcus epidermidis; test: In vitro antibacterial activity against Staphylococcus epidermidis; type: functional
[16] = system: Listeria monocytogenes; test: In vitro antibacterial activity against Listeria monocytogenes; type: functional
[17] = system: Morganella morganii; test: In vitro antibacterial activity against Morganella morganii; type: functional
[18] = system: Escherichia coli; test: In vitro antibacterial activity against Escherichia. coli TEM1; type: functional
[19] = system: Staphylococcus aureus; test: In vitro antibacterial activity against Staphylococcus aureus ATCC 25923; type: functional
[20] = system: Enterococcus faecalis; test: In vitro antibacterial activity against Enterococcus faecalis ATCC 29212; type: functional
[21] = system: Pseudomonas aeruginosa; test: In vitro antibacterial activity against Pseudomonas aeruginosa; type: functional
[22] = system: Staphylococcus aureus; test: In vitro antibacterial activity against Staphylococcus aureus ATCC 29213; type: functional
[23] = system: Escherichia coli; test: In vitro antibacterial activity against Escherichia. coli SHV; type: functional
[24] = system: Staphylococcus aureus; test: In vitro antibacterial activity against Staphylococcus aureus MR09; type: functional
[25] = system: Proteus vulgaris; test: In vitro antibacterial activity against Proteus vulgaris; type: functional
[26] = system: Escherichia coli; test: In vitro antibacterial activity against Escherichia. coli DC2; type: functional
[27] = system: Escherichia coli; test: In vitro antibacterial activity against Escherichia coli; type: functional
[28] = system: Stenotrophomonas maltophilia; test: In vitro antibacterial activity against Xanthomonas maltophilia; type: functional
[29] = system: Klebsiella aerogenes; test: In vitro antibacterial activity against Enterobacter aerogenes; type: functional
[30] = system: Pseudomonas aeruginosa; test: In vitro antibacterial activity against Pseudomonas aeruginosa G242; type: functional
[31] = system: Acinetobacter calcoaceticus subsp. anitratus; test: In vitro antibacterial activity against Acinetobacter anitratus; type: functional
[32] = system: Proteus mirabilis; test: In vitro antibacterial activity against Proteus mirabilis; type: functional
[33] = system: Escherichia coli; test: In vitro antibacterial activity against Escherichia. coli ATCC 25922; type: functional
[34] = system: Citrobacter freundii; test: In vitro antibacterial activity against Citrobacter freundii; type: functional
[35] = system: Pseudomonas aeruginosa; test: In vitro antibacterial activity against Pseudomonas aeruginosa ATCC 27853; type: functional
[36] = system: Escherichia coli; test: In vitro antibacterial activity against Escherichia. coli TEM2; type: functional
[37] = system: Providencia stuartii; test: In vitro antibacterial activity against Providencia stuartii; type: functional
[38] = system: Pseudomonas aeruginosa; test: In vitro antibacterial activity against Pseudomonas aeruginosa VR5; type: functional
[39] = system: Providencia rettgeri; test: In vitro antibacterial activity against Providencia rettgerii; type: functional
[40] = system: Staphylococcus aureus; test: In vitro antibacterial activity against Staphylococcus aureus MR13; type: functional
[41] = system: Escherichia coli; test: In vitro antibacterial activity against Escherichia. coli L; type: functional

`CC1(C)S[C@@H]2[C@H](NC(=O)[C@H](N)c3ccc(O)cc3)C(=O)N2[C@H]1C(=O)O` [AMOXICILLIN] was tested, and the MIC90 [1] was > 32 µg/mL, the MIC90 [2] was 0.06 µg/mL (≈ 0.164 µM) and the MIC90 [3] was 0.5 µg/mL (≈ 1.37 µM). The MIC90 [4] was 1 µg/mL (≈ 2.74 µM), the MIC90 [5] was > 32 µg/mL and the MIC90 [6] was 32 µg/mL (≈ 87.6 µM). The MIC90 [7] was 0.015 µg/mL (≈ 0.041 µM), the MIC90 [8] was > 64 µg/mL and the MIC90 [9] was 2 µg/mL (≈ 5.47 µM). The MIC90 [10] was > 64 µg/mL, the MIC90 [11] was 0.06 µg/mL (≈ 0.164 µM) and the MIC90 [12] was 1 µg/mL (≈ 2.74 µM). The MIC90 [13] was 32 µg/mL (≈ 87.6 µM), the MIC90 [14] was 0.015 µg/mL (≈ 0.041 µM) and the MIC90 [15] was 4 µg/mL (≈ 10.9 µM). For the same molecule, the MIC90 [16] was 0.5 µg/mL (≈ 1.37 µM).

`C[C@@H](O)[C@H]1C(=O)N2C(C(=O)O)=C(CN(C)CC(N)=O)SC12` (stereo partly specified) gave an MIC90 [17] of 2 µg/mL (≈ 6.34 µM), an MIC90 [1] of 4 µg/mL (≈ 12.7 µM) and an MIC [18] of 0.25 µg/mL (≈ 0.793 µM). For the same molecule, the MIC [19] was < 0.03 µg/mL, the MIC90 [2] was 0.5 µg/mL (≈ 1.59 µM) and the MIC [20] was 4 µg/mL (≈ 12.7 µM). The MIC90 [3] was 8 µg/mL (≈ 25.4 µM), the MIC90 [4] was 2 µg/mL (≈ 6.34 µM) and the MIC90 [5] was 1 µg/mL (≈ 3.17 µM). The MIC90 [21] was > 64 µg/mL, the MIC [22] was 0.06 µg/mL (≈ 0.19 µM) and the MIC90 [6] was 2 µg/mL (≈ 6.34 µM). The MIC90 [7] was 0.06 µg/mL (≈ 0.19 µM), the MIC [23] was 0.5 µg/mL (≈ 1.59 µM) and the MIC90 [8] was 0.5 µg/mL (≈ 1.59 µM). The MIC [24] was 1 µg/mL (≈ 3.17 µM), the MIC90 [25] was 2 µg/mL (≈ 6.34 µM) and the MIC [26] was 0.25 µg/mL (≈ 0.793 µM). For the same molecule, the MIC90 [27] was 0.25 µg/mL (≈ 0.793 µM), the MIC90 [28] was > 64 µg/mL and the MIC90 [29] was 2 µg/mL (≈ 6.34 µM). It also gave an MIC [30] of 4 µg/mL (≈ 12.7 µM), an MIC90 [31] of 16 µg/mL (≈ 50.7 µM) and an MIC90 [32] of 1 µg/mL (≈ 3.17 µM). The MIC [33] was 0.25 µg/mL (≈ 0.793 µM), the MIC90 [34] was 1 µg/mL (≈ 3.17 µM) and the MIC [35] was > 32 µg/mL. It also gave an MIC [36] of 0.5 µg/mL (≈ 1.59 µM), an MIC90 [9] of 0.25 µg/mL (≈ 0.793 µM) and an MIC90 [37] of 2 µg/mL (≈ 6.34 µM). The MIC [38] was 0.5 µg/mL (≈ 1.59 µM), the MIC90 [10] was 0.5 µg/mL (≈ 1.59 µM) and the MIC90 [39] was 2 µg/mL (≈ 6.34 µM). The MIC90 [11] was 0.06 µg/mL (≈ 0.19 µM), the MIC90 [12] was 0.0075 µg/mL (≈ 0.0238 µM) and the MIC [40] was 0.06 µg/mL (≈ 0.19 µM). For the same molecule, the MIC90 [13] was > 64 µg/mL, the MIC90 [14] was 0.06 µg/mL (≈ 0.19 µM) and the MIC90 [15] was 0.015 µg/mL (≈ 0.0476 µM). For the same molecule, the MIC90 [16] was 0.5 µg/mL (≈ 1.59 µM) and the MIC [41] was 0.25 µg/mL (≈ 0.793 µM).

For `CC1(C)S[C@@H]2[C@H](NC(=O)[C@H](N)c3ccccc3)C(=O)N2[C@H]1C(=O)O.CC1(C)[C@H](C(=O)O)N2C(=O)C[C@H]2S1(=O)=O`, the MIC90 [17] was 16 µg/mL, the MIC90 [1] was 32 µg/mL and the MIC [18] was > 32 µg/mL. For the same molecule, the MIC [19] was 0.03 µg/mL, the MIC90 [2] was 0.12 µg/mL and the MIC [20] was 1 µg/mL. The MIC90 [3] was 2 µg/mL, the MIC90 [4] was 1 µg/mL and the MIC90 [5] was > 32 µg/mL. For the same molecule, the MIC90 [21] was > 64 µg/mL, the MIC [22] was 0.25 µg/mL and the MIC90 [6] was 4 µg/mL. For the same molecule, the MIC90 [7] was 0.03 µg/mL, the MIC [23] was > 32 µg/mL and the MIC90 [8] was 32 µg/mL. The MIC [24] was 4 µg/mL, the MIC90 [25] was 8 µg/mL and the MIC90 [27] was 8 µg/mL. For the same molecule, the MIC90 [28] was > 64 µg/mL, the MIC90 [29] was > 64 µg/mL and the MIC [30] was > 32 µg/mL. The MIC90 [31] was 32 µg/mL, the MIC90 [32] was 32 µg/mL and the MIC [33] was 8 µg/mL. For the same molecule, the MIC90 [34] was > 64 µg/mL, the MIC [35] was 32 µg/mL and the MIC [36] was 8 µg/mL. For the same molecule, the MIC90 [9] was 0.5 µg/mL, the MIC90 [37] was 64 µg/mL and the MIC [38] was 0.12 µg/mL. It also gave an MIC90 [10] of 16 µg/mL, an MIC90 [39] of 32 µg/mL and an MIC90 [11] of 0.06 µg/mL. The MIC90 [12] was 1 µg/mL, the MIC [40] was 0.12 µg/mL and the MIC90 [13] was > 64 µg/mL. The MIC90 [14] was 0.03 µg/mL, the MIC90 [15] was 4 µg/mL and the MIC90 [16] was 0.5 µg/mL. For the same molecule, the MIC [41] was 8 µg/mL.

In the case of `C[C@@H](O)[C@H]1C(=O)N2C(C(=O)O)=C(CN(C)CC(=O)N(C)C)SC12` (stereo partly specified), the MIC [18] is reported as 1 µg/mL (≈ 2.91 µM), the MIC [19] is reported as 0.12 µg/mL (≈ 0.349 µM) and the MIC [20] is reported as 8 µg/mL (≈ 23.3 µM). The MIC [22] was 0.25 µg/mL (≈ 0.728 µM), the MIC [23] was 1 µg/mL (≈ 2.91 µM) and the MIC [24] was 4 µg/mL (≈ 11.6 µM). It also gave an MIC [26] of 1 µg/mL (≈ 2.91 µM), an MIC [30] of 0.5 µg/mL (≈ 1.46 µM) and an MIC [33] of 0.5 µg/mL (≈ 1.46 µM). For the same molecule, the MIC [35] was > 32 µg/mL, the MIC [36] was 1 µg/mL (≈ 2.91 µM) and the MIC [38] was 4 µg/mL (≈ 11.6 µM). The MIC [40] was 0.25 µg/mL (≈ 0.728 µM) and the MIC [41] was 0.5 µg/mL (≈ 1.46 µM).

— ChEMBL document CHEMBL1128849, “Synthesis and antibacterial activity of men 10700, a new penem antibiotic” (1995)
